The subject of assay [1] is JAK1/JAK2-dependent nuclear translocation of STAT1-GFP in HT1080 fibrosarcoma cells. Put plainly: STAT1 nuclear translocation assay (Cellomics), IFN-γ stimulated HT1080 STAT1-GFP cells. Conditions: Homo sapiens, HT-1080, STAT1 translocation pathway. The format is cell-based. In outline:
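HT1080 cells stably expressing STAT1-GFP, pre-treated 30 min with compound (10 μM–0.003 μM, 0.1% DMSO), then stimulated 2 h with 100 ng/ml IFN-γ, fixed and Hoechst-stained. Nuclear-cytoplasmic GFP differential imaged over ≥1000 cells/well, normalised to unstimulated and DMSO-stimulated wells for IC50.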

Assay [2] concerns the target T1, GST-JAK2(808-1132) (Homo sapiens, UniProt O60674).
T1 construct: GST-JAK2(808-1132); purchased Invitrogen (Carlsbad, USA) #4288
Kind of assay: JAK2 kinase assay (Caliper mobility shift, LabChip 3000). In kind it is biochemical. In outline: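 Recombinant GST-JAK2(808-1132) kinase domain with FITC-labelled JAK3tide peptide substrate and ATP; 60 min at 30 °C, EDTA stop. Substrate/product ratio read by microfluidic mobility shift; compounds at 8 final concentrations, 10 to 0.003 μM.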

These results are taken from patent US8420657B2 (Novartis AG, priority 2008, dated 2013).

The IC50 is the concentration that inhibits the measured activity by half.

T1 sequence (O60674 808-1132): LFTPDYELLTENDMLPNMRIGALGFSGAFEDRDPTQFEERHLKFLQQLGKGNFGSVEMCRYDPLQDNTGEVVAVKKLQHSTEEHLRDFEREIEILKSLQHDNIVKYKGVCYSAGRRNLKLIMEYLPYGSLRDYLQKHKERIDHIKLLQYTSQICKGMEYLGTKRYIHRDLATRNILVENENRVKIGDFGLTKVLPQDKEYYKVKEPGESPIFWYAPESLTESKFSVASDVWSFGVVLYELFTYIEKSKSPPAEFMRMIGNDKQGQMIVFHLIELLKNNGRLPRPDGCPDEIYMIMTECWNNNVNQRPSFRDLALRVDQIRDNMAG

As for `Cc1cc(Nc2ncc3ccn(-c4cc(F)c(CN5CCS(=O)(=O)CC5)c(F)c4)c3n2)ccc1F` [Example 137, {7-[4-(1,1-Dioxido-thiomorpholin-4-ylmethyl)-3,5-difluoro-phenyl]-7H-pyrrolo[2,3-d]pyrimidin-2-yl}-(4-fluoro-3-methyl-phenyl)-amin], the figures for the IC50 in assay [1] and in assay [2] were 150 nM and 3.3 nM, respectively.

On to `Cc1ccc(Nc2ncc3ccn(-c4ccc(C[S+](C)[O-])cc4)c3n2)cc1` (stereo not shown) [Example 139, [7-(4-Methanesulfinylmethyl-phenyl)-7H-pyrrolo[2,3-d]pyrimidin-2-yl]-p-tolyl-amine], for which the results for the IC50 in assay [1] and in assay [2] were 630 nM and 11 nM, respectively.

With `COc1cc(Nc2ncc3ccn(-c4ccc(C(=O)N5CCOCC5)cc4)c3n2)ccc1C` [Example 240, {4-[2-(3-Methoxy-4-methyl-phenylamino)-pyrrolo[2,3-d]pyrimidin-7-yl]-phenyl}-morpholin-4-yl-methanone], the IC50 in assay [1] is 730 nM; in assay [2], 5.2 nM.

For `CC(C)Oc1ccc(Nc2ncc3ccn(-c4ccc(CN5CCS(=O)(=O)CC5)c(F)c4)c3n2)cc1` [Example 112, {7-[4-(1,1-Dioxido-thiomorpholin-4-ylmethyl)-3-fluoro-phenyl]-7H-pyrrolo[2,3-d]pyrimidin-2-yl}-(4-isopropoxy-phenyl)-amine], the IC50 in assay [1] was 73 nM; in assay [2] it was under 3 nM.

Consider `COc1cc(Nc2ncc3cc(C)n(-c4ccc(CN5CCOCC5)c(F)c4)c3n2)ccc1F` [Example 164, (4-Fluoro-3-methoxy-phenyl)-[7-(3-fluoro-4-morpholin-4-ylmethyl-phenyl)-6-methyl-7H-pyrrolo[2,3-d]pyrimidin-2-yl]-amine], for which the IC50 in assay [1] stood at 10700 nM; in assay [2] it was 230 nM.

On to `CCN1CCN(c2ccc(Nc3ncc4ccn(-c5ccc(C(=O)N6CCOCC6)c(F)c5)c4n3)cc2C)CC1` [Example 293, (4-{2-[4-(4-Ethyl-piperazin-1-yl)-3-methyl-phenylamino]-pyrrolo[2,3-d]pyrimidin-7-yl}-2-fluoro-phenyl)-morpholin-4-yl-methanone], for which the IC50 in assay [1] is 8 nM; in assay [2] it was under 3 nM.

Turning to `Cc1ccc(Nc2ncc3cc(C)n(-c4ccc(CN5CCOCC5)c(F)c4)c3n2)cc1C` [Example 163, (3,4-Dimethyl-phenyl)-[7-(3-fluoro-4-morpholin-4-ylmethyl-phenyl)-6-methyl-7H-pyrrolo[2,3-d]pyrimidin-2-yl]-amine], the IC50 turned out to be 23500 nM in assay [1] and 295 nM in assay [2].

For `CCN1CCN(Cc2c(F)cc(-n3ccc4cnc(Nc5ccc(F)c(C)c5)nc43)cc2F)CC1` [Example 132, {7-[4-(4-Ethyl-piperazin-1-ylmethyl)-3,5-difluoro-phenyl]-7H-pyrrolo[2,3-d]pyrimidin-2-yl}-(4-fluoro-3-methyl-phenyl)-amine], the IC50 in assay [1] amounted to 6280 nM; in assay [2], 40.5 nM.

Regarding `CCN1CCN(C(=O)c2ccc(Nc3ncc4ccn(-c5cc(F)c(CN6CCOCC6)c(F)c5)c4n3)cc2)CC1` [Example 171, {4-[7-(3,5-Difluoro-4-morpholin-4-ylmethyl-phenyl)-7H-pyrrolo[2,3-d]pyrimidin-2-ylamino]-phenyl}-(4-ethyl-piperazin-1-yl)-methanone], the values for the IC50 in assay [1] and in assay [2] were 260 nM and under 3 nM, respectively.

With `O=C(c1ccc(Nc2ncc3ccn(-c4ccc(CN5CCOCC5)c(Cl)c4)c3n2)cc1)N1CCOCC1` [Example 175, {4-[7-(3-Chloro-4-morpholin-4-ylmethyl-phenyl)-7H-pyrrolo[2,3-d]pyrimidin-2-ylamino]-phenyl}-morpholin-4-yl-methanone], the IC50 in assay [1] is 275 nM; in assay [2], under 3 nM.

In the case of `CS(=O)(=O)c1ccc(-n2ccc3cnc(Nc4ccc(Cn5ccnc5)cc4)nc32)cc1` [Example 43, (4-Imidazol-1-ylmethyl-phenyl)-[7-(4-methanesulfonyl-phenyl)-7H-pyrrolo[2,3-d]pyrimidin-2-yl]-amine], the IC50 in assay [1] is 350 nM; in assay [2], under 3 nM.
